Test results published in article PMC5228037, “Discovery and Mechanistic Characterization of Selective Inhibitors of H2S-producing Enzyme: 3-Mercaptopyruvate Sulfurtransferase (3MST) Targeting Active-site Cysteine Persulfide” (Scientific Reports, 2017).

Target: T1, 3MST in cell lysate of 3MST-overexpressing HEK293 cells (Mus musculus, UniProt Q99J99)
T1 construct: expressed in transfected cells; host or cells: HEK293 (transient, 3MST/pCI)
T1 sequence (Q99J99 1-297): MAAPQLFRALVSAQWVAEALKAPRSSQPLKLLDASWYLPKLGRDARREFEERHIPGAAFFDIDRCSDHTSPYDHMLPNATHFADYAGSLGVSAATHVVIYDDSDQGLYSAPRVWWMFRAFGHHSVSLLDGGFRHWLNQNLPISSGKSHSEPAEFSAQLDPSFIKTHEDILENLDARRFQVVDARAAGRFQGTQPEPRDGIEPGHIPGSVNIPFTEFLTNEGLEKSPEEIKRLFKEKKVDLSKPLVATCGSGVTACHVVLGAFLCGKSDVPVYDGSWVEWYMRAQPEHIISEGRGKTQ
Test: Inhibitory activity in lysate of m3MST-overexpressing HEK293 cells by gas chromatography
Type: biochemical
Settings: 10 μM compound, 100 μM 3MP, 100 μM DTT, 37 °C 15 min
Method: Figure 2 Selectivity assessment of hit compounds for 3MST over other H2S/polysulfides-producing enzymes and rhodanese. (a) 3MST-Inhibitory activity of hit compounds at 10 and 100 μM in cell lysate of 3MST-expressing HEK293 cells. 100 μM 3MP and 100 μM DTT were added to the solution containing 0.1% DMSO as a cosolvent, and the mixture was incubated at 37 °C for 15 min. H2S production was measured by gas chromatography. All data are presented as the mean ± S.D. (100 μM: n = 3 or 4; 10 μM: n = 3). (b) Selectivity assessment of hit compounds at 100 μM towards CBS and CSE. Only DMSO was added to the control sample instead of DMSO solution containing hit compounds. H2S production was monitored by gas chromatography. All data are presented as the mean (n = 3). (c) Detection method for rhodanese activity (Sörbo method). (d) Selectivity assessment of hit compounds towards rhodanese. The results are mean ± S.D. (n = 4, three times). These values were determined based upon the absorbance of [Fe(SCN)3] at 460 nm (Sӧrbo method). […] (e) Fluorescence confocal microscopic images of live COS7 cells transfected with 3MST or an empty vector[9] as a control. […] F/F0 was calculated by dividing the fluorescence intensity of cells after addition of 500 μM 3MP (10 min) by that of cells before addition of 500 μM 3MP (Pre), then the mean F/F0 was determined from 5 cells. […]

| inhibition at 10 µM [%] | Structure (SMILES) |
| --- | --- |
| 80 to 90 | Cc1cc(=O)[nH]c(SCC(=O)c2cccc3ccccc23)n1 [compound 3] |
| 80 to 90 | NC(=O)c1ccsc1NC(=O)CSc1nc2ccccc2c(=O)[nH]1 [compound 1] |
